Test results published in patent US11840686B2, “Modulation of prekallikrein (PKK) expression” (Ionis Pharmaceuticals, Inc., priority 2013, dated 2023).
pIC50: −log10 of the molar value. Strand notation (5' to 3'): a small letter for the sugar, then the base; units joined by * are phosphorothioate-linked, units joined directly phosphodiester-linked; [ ] holds rarer units or linkages, { } end groups; capitals alone tell only the bases. e = 2'-O-(2-methoxyethyl) (MOE); k = constrained ethyl (cEt); [5mC] = 5-methylcytosine; d = 2'-deoxy (DNA)

Tests used:
human PKK mRNA [1] = test: Dose-dependent antisense inhibition of human PKK in HepaRG cells, 0.11-3.00 uM (Example 6); format: cell-based; conditions: for pIC50: 0.11-3.00 μM; for percent inhibition of PKK mRNA, 0.11 μM / percent inhibition of PKK mRNA, 0.33 μM / percent inhibition of PKK mRNA, 1.00 μM / percent inhibition of PKK mRNA, 3.00 μM: electroporation, approx. 16 hours, relative to untreated control cells
Procedure, shortened: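 HepaRG cells were electroporated with antisense oligonucleotide at 0.11, 0.33, 1.00 or 3.00 μM. After about 16 h, PKK mRNA was quantified by qRT-PCR with primer probe set RTS3454 and normalized to total RNA by RIBOGREEN. IC50 was derived from the dose series.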

human PKK mRNA [2] = test: Antisense inhibition of human PKK mRNA in HepaRG cells, 1,000 nM, MOE/deoxy/cEt oligonucleotides (Example 3); format: cell-based
Procedure, shortened: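 HepaRG cells at 20,000 per well electroporated with 1,000 nM 16-mer MOE/cEt/deoxy gapmers (phosphorothioate, 5-methylcytosine). After about 24 h, PKK mRNA measured by qRT-PCR with primer probe set RTS3454, normalized to RIBOGREEN total RNA. Reported as percent inhibition versus untreated cells.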

[3] = HepaRG cells, electroporation with 1,000 nM antisense oligonucleotide, approximately 24 hours, primer probe set RTS3454, relative to untreated control cells, experiment of Table 24
[4] = Table 20, HepaRG cells, electroporation with 1,000 nM antisense oligonucleotide, approximately 24 hours, PKK mRNA by RT-PCR (RTS3454), relative to untreated control cells
[5] = Table 22 experiment, HepaRG cells, electroporation with 1,000 nM antisense oligonucleotide, approx. 24 hours, PKK mRNA by RT-PCR (RTS3454), relative to untreated control cells
[6] = Table 30, human PKK mRNA, HepaRG cells, 1,000 nM antisense oligonucleotide

Substance | pIC50 (human PKK mRNA [1]) | percent inhibition of PKK mRNA, 0.11 μM (human PKK mRNA [1]) [%] | percent inhibition of PKK mRNA, 0.33 μM (human PKK mRNA [1]) [%] | percent inhibition of PKK mRNA, 1.00 μM (human PKK mRNA [1]) [%] | percent inhibition of PKK mRNA, 3.00 μM (human PKK mRNA [1]) [%] | % inhibition (human PKK mRNA [2]; [3]) [%] | % inhibition (human PKK mRNA [2]; [4]) [%] | % inhibition (human PKK mRNA [2]; [5]) [%] | % inhibition (human PKK mRNA [2]; HepaRG cells, electroporation with 1,000 nM antisense oligonucleotide, approx. 24 hours, PKK mRNA by RT-PCR (RTS3454), relative to untreated control cells, Table 25 experiment) [%] | % inhibition (human PKK mRNA [2]; [6]) [%] | % inhibition (human PKK mRNA [2]; HepaRG cells, electroporation with 1,000 nM antisense oligonucleotide, approximately 24 hours, primer probe set RTS3454, relative to untreated control cells, experiment of Table 23) [%] | % inhibition (human PKK mRNA [2]; HepaRG cells, 1,000 nM antisense oligonucleotide, Table 29) [%] | % inhibition (human PKK mRNA [2]; Table 19, HepaRG cells, electroporation with 1,000 nM antisense oligonucleotide, approximately 24 hours, PKK mRNA by RT-PCR (RTS3454), relative to untreated control cells) [%]
548070 (e[5mC]*e[5mC]*k[5mC]*dA*dA*d[5mC]*dA*dG*dT*dT*dG*dG*dT*kA*kT*eA; antisense) [compound 548070] | 5.96 | 26 | 35 | 48 | 63 | 85 |  |  |  |  |  |  | 
547861 (antisense eA*e[5mC]*kT*d[5mC]*d[5mC]*dT*d[5mC]*dT*d[5mC]*dA*dT*dA*dT*k[5mC]*kA*eA) [compound 547861] | 6.30 | 7 | 40 | 75 | 84 |  | 0 | 57 |  |  |  |  | 
547997 (antisense eT*eT*kG*dT*dG*dT*d[5mC]*d[5mC]*d[5mC]*dA*dT*dA*d[5mC]*kG*k[5mC]*eA) [compound 547997] | 6.70 | 39 | 68 |  | 82 | 89 |  |  |  |  |  |  | 
547851 (antisense eT*eA*kA*dA*dT*dG*dT*d[5mC]*dT*d[5mC]*dG*dA*dT*kG*kG*e[5mC]) [compound 547851] | 6.40 | 16 | 46 | 83 |  |  | 93 | 84 |  |  |  |  | 
548180 (eT*e[5mC]*kA*dT*dG*dG*dA*dG*dA*dT*d[5mC]*dT*d[5mC]*kA*kG*eT; antisense) [compound 548180] | 6.40 | 11 | 59 | 71 | 88 |  |  |  | 79 |  |  |  | 
548069 (e[5mC]*e[5mC]*kA*dA*d[5mC]*dA*dG*dT*dT*dG*dG*dT*dA*kT*kA*eA; antisense) [compound 548069] | 5.72 | 6 | 0 | 27 | 66 | 57 |  |  |  |  |  |  | 
548425 (antisense eA*eA*k[5mC]*dA*dG*dT*dA*dT*d[5mC]*dA*d[5mC]*dT*dG*kT*k[5mC]*e[5mC]) [compound 548425] | 6.70 | 41 | 57 | 68 | 80 |  |  |  |  | 90 |  |  | 
547943 (eT*eG*kG*dT*dG*dT*dG*d[5mC]*d[5mC]*dA*d[5mC]*dT*dT*kT*k[5mC]*eA; antisense) [compound 547943] | 6.70 | 33 | 70 | 87 | 90 |  |  |  |  |  | 83 |  | 
548570 (eA*eT*kG*d[5mC]*d[5mC]*dT*dT*dG*dT*dG*d[5mC]*d[5mC]*dT*kA*kT*eT; antisense) [compound 548570] | 6.40 | 20 | 40 | 70 | 94 |  |  |  |  |  |  | 74 | 
548424 (antisense e[5mC]*eA*kG*dT*dA*dT*d[5mC]*dA*d[5mC]*dT*dG*dT*d[5mC]*k[5mC]*kT*eA) [compound 548424] | 6.52 | 17 | 67 | 86 | 72 |  |  |  |  | 90 |  |  | 
548128 (eA*eT*kT*dG*d[5mC]*d[5mC]*dT*dA*dG*dA*d[5mC]*dT*d[5mC]*kT*kG*eG; antisense) [compound 548128] | 5.96 | 14 | 29 | 49 | 66 |  |  |  |  |  |  |  | 55
548061 (eG*e[5mC]*kT*dT*dG*dT*dG*dT*d[5mC]*dA*d[5mC]*d[5mC]*dT*kT*kT*eG; antisense) [compound 548061] | 6.40 | 26 | 61 | 59 |  | 86 |  |  |  |  |  |  | 
